# Data reported in patent publication US20240279221A1, “HETEROCYCLIC COMPOUNDS AND METHODS OF USE” (Schrödinger, Inc., priority 2021, published 2024).
# Target: SOS1:KRAS (G12C) interaction (Homo sapiens (Human), UniProt Q07889)
# Experiment: SOS1-KRas(G12C) FRET Assay
# Type: binding
# Details: 0.5 nM His10-SOS1 (res. 564-1049), 2.5 nM GST-KRAS (res. 1-169, G12C); read-out: SOS-KRas(G12C) FRET IC50
# In short: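 Compounds were pre-incubated 15 min at 25° C with SOS1 (His10, res. 564-1049; 0.5 nM final) and anti-6His-XL665, then GST-KRAS G12C (res. 1-169; 2.5 nM final) with anti-GST-Eu(K) was added for 2 h at RT. The buffer was PBS, 0.1% BSA, 5 mM MgCl2, 100 mM KF, 5 mM DTT with 0.5% DMSO. The 665/615 nm signal was normalised to DMSO and no-SOS1 controls, and IC50 and Hill coefficient were fitted by non-linear regression.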
# Sequence of SOS1:KRAS (G12C) interaction (Q07889 564-1049, stated change not applied): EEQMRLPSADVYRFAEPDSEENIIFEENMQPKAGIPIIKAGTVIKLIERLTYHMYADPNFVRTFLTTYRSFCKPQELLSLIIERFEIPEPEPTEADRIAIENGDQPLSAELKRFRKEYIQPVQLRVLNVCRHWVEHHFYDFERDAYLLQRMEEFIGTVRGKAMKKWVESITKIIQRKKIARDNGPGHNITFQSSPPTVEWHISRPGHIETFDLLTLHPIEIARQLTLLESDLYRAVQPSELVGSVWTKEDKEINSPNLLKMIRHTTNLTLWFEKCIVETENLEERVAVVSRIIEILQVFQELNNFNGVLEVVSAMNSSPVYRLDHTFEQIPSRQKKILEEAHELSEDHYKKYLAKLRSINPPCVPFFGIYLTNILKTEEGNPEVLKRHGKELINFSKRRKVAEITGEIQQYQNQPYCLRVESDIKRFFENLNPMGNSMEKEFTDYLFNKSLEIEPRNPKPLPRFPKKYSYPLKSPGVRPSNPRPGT
row,SMILES,IC50 [nM]
1,"COc1c(=O)n(C2CCOCC2)cc2c(N[C@H](C)c3cccc(C(C)(F)F)c3F)nn(C)c(=O)c12 [Example 37, (R)-4-((1-(3-(1,1-difluoroethyl)-2-fluorophenyl)ethyl)amino)-8-methoxy-2-methyl-6-(tetrahydro-2H-pyran-4-yl)-2,6-dihydropyrido[3,4-d]pyridazine-1,7-dione]",30.4
2,"COCC(F)(F)c1cccc([C@@H](C)Nc2nn(C)c(=O)c3cc(=O)n(C4(C(F)F)CC4)cc23)c1F [Example 161, 4-[[(1R)-1-[3-(1,1-difluoro-2-methoxy-ethyl)-2-fluoro-phenyl]ethyl]amino]-6-[1-(difluoromethyl)cyclopropyl]-2-methyl-pyrido[3,4-d]pyridazine-1,7-dione]",24.9
3,"C[C@@H](Nc1nn(C)c(=O)c2cc(=O)n(C34COC(C)(C3)C4)cc12)c1cccc(C(F)F)c1F [Example 179, (R)-4-((1-(3-(difluoromethyl)-2-fluorophenyl)ethyl)amino)-2-methyl-6-(1-methyl-2-oxabicyclo[2.1.1]hexan-4-yl)-2,6-dihydropyrido[3,4-d]pyridazine-1,7-dione]",68.4
4,"CC(=O)N1CC[C@@](n2cc3c(N[C@H](C)c4cccc5c(F)coc45)nn(C)c(=O)c3cc2=O)(C(F)(F)F)C1 (single isomer, unassigned) [Example 172]",13.8
5,"C[C@@H](Nc1nn(C)c(=O)c2cc(=O)n([C@@]3(C(F)(F)F)CCOC3)cc12)c1cccc2c(F)coc12 (single isomer, unassigned) [Example 166]",34.8
6,"C[C@@H](Nc1nn(C)c(=O)c2cc(=O)n(C3(CO)CC3)cc12)c1cccc(C(F)F)c1F [Example 123, (R)-4-((1-(3-(difluoromethyl)-2-fluorophenyl)ethyl)amino)-6-(1-(hydroxymethyl)cyclopropyl)-2-methylpyrido[3,4-d]pyridazine-1,7(2H,6H)-dione]",366
7,"CC(=O)N1CC[C@](C)(n2cc3c(N[C@H](C)c4cccc(C(F)F)c4F)nn(C)c(=O)c3cc2=O)C1 (single isomer, unassigned) [Example 144]",209
8,"C[C@@H](Nc1nn(C)c(=O)c2cc(=O)n(C3CC3)cc12)c1cccc(C(F)(F)CO)c1F [Example 104, (R)-6-cyclopropyl-4-((1-(3-(1,1-difluoro-2-hydroxyethyl)-2-fluorophenyl)ethyl)amino)-2-methyl-2,6-dihydropyrido[3,4-d]pyridazine-1,7-dione]",37
9,"C[C@H](Nc1nn(C)c(=O)c2cc(=O)n(C3CC3)cc12)c1cccc(C(F)(F)C(=O)N(C)C)c1F [Example 105, (S)-2-(3-(1-((6-cyclopropyl-2-methyl-1,7-dioxo-1,2,6,7-tetrahydropyrido[3,4-d]pyridazin-4-yl)amino)ethyl)-2-fluorophenyl)-2,2-difluoro-N,N-dimethylacetamide]",> 10000
10,"C[C@@H](Nc1nn(C)c(=O)c2cc(=O)n(C3(C(F)F)CC3)cc12)c1cccc2c1OCC2(F)F [Example 160, (R)-4-((1-(3,3-difluoro-2,3-dihydrobenzofuran-7-yl)ethyl)amino)-6-(1-(difluoromethyl)cyclopropyl)-2-methyl-2,6-dihydropyrido[3,4-d]pyridazine-1,7-dione]",36.7
11,"C[C@@H](Nc1nn(C)c(=O)c2cc(=O)n(C3(C)CN(C(=O)C4(F)CC4)C3)cc12)c1cccc(C(F)F)c1F [Example 153, (R)-4-((1-(3-(difluoromethyl)-2-fluorophenyl)ethyl)amino)-6-(1-(1-fluorocyclopropane-1-carbonyl)-3-methylazetidin-3-yl)-2-methyl-2,6-dihydropyrido[3,4-d]pyridazine-1,7-dione]",86.9
12,"C[C@H](Nc1nn(C)c(=O)c2cc(=O)n(C3CC3)cc12)c1ccc2c(c1)CCCC2 [Example 102, (S)-6-cyclopropyl-2-methyl-4-((1-(5,6,7,8-tetrahydronaphthalen-2-yl)ethyl)amino)-2,6-dihydropyrido[3,4-d]pyridazine-1,7-dione]",3790
